Structures are written as SMILES.

As usually defined, the IC50 is the point on the concentration scale where inhibition reaches its midpoint.

The target of the first assay is T1, γ-secretase (Homo sapiens, UniProt P49768).
T1 construct: uses a HEK293 membrane fraction as a source of γ-secretase; endogenous in cells; host or cells: HEK293 (microsomal membrane fraction, solubilised in 0.25% CHAPSO)
Briefly: in vitro γ-secretase assay (HEK293 membrane fraction, recombinant APP substrate, Abeta ELISA). The assay is classed as biochemical. Conditions: γ-secretase inhibition. An excerpt: Description of γ-Secretase Assay
The activity of test compounds can be evaluated in assays which measure the proteolytic cleavage of suitable substrates by γ-secretase activity. These can be cellular assays where e.g., a substrate of the γ-secretase is fused in its cytoplasmic domain to a transcription factor. Cells are transfected with this fusion gene and a reporter gene, e.g., firefly luciferase, which expression is enhanced by the transcription factor. Cleavage of the fused substrate by γ-secretase will lead to expression of the reporter gene which can be monitored in appropriate assays. The γ-secretase activity can also be determined in cell-free in vitro asays where e.g., a cell lysate containing the γ-secretase complex is incubated with a suitable APP-derived substrate which is cleaved to the Abeta peptides. The amount of produced peptides can be determined with specific ELISA assays. Cell lines of neuronal origin secrete Abeta peptides which can be measured with the specific ELISA assay. Treatment with compounds which inhibit γ-secretase leads to a reduction of secreted Abeta thus providing a measure of inhibition.
The in vitro assay of γ-secretase activity uses a HEK293 membrane fraction as a source of γ-secretase and a recombinant APP substrate. Latter consist of the C-terminal 100 amino acids of human APP fused to a 6× Histidin tail for purification which is expressed in E. coli in a regulatable expression vector, e.g. pEt15. This recombinant protein corresponds to the truncated APP fragment which results after […] of the extracellular domain and which constitutes the γ-secretase substrate. […] Hek293 cells are mechanically disrupted and the microsomal fraction is isolated by differential centrifugation.
Background: ELISA stands for enzyme-linked immunosorbent assay.
With `COc1ccc(CN(C2CC(C(F)(F)F)CCNC2=O)S(=O)(=O)c2ccc(Cl)cc2)c(F)c1` (centres unmarked) [Example 198, 4-Chloro-N-(2-fluoro-4-methoxy-benzyl)-N-(2-oxo-5-trifluoromethyl-azepan-3-yl)-benzenesulfonamide], the concentration for half-maximal inhibition (IC50) was determined as 290 nM.

Regarding `COc1ccc(CN([C@@H]2CCCCNC2=O)S(=O)(=O)c2ccc(Cl)cc2)c(F)c1F` [Example 211, 4-Chloro-N-(2,3-difluoro-4-methoxy-benzyl)-N-((R)-2-oxo-azepan-3-yl)-benzenesulfonamide], the IC50 amounted to 50 nM.

Staying with this assay, now noted: γ-secretase inhibition, table head prints none.
As for `COC(=O)c1ccc(CN(C2CC(C(F)(F)F)CCNC2=O)S(=O)(=O)c2ccc(Cl)cc2)c(F)c1` (centres unmarked) [Example 197, 4-{[(4-Chloro-benzenesulfonyl)-(2-oxo-5-trifluoromethyl-azepan-3-yl)-amino]-methyl}-3-fluoro-benzoic acid methyl ester], the 50% inhibitory concentration (IC50) was determined as 20 nM.

With `CC1(C)CCNC(=O)C(N(Cc2ccc(C(=O)NCC(F)(F)F)cc2)S(=O)(=O)c2ccc(Cl)cc2)C1` (racemic) [Example 141, rac-4-{[(4-Chloro-benzenesulfonyl)-(5,5-dimethyl-2-oxo-azepan-3-yl)-amino]-methyl}-N-(2,2,2-trifluoro-ethyl)-benzamide], the IC50 stood at 20 nM.

Turning to `CC1(C)CCNC(=O)C(N(Cc2ccc(C(=O)NC3CCCC3)cc2)S(=O)(=O)c2ccc(Cl)cc2)C1` (racemic) [Example 144, rac-4-{[(4-Chloro-benzenesulfonyl)-(5,5-dimethyl-2-oxo-azepan-3-yl)-amino]-methyl}-N-cyclopentyl-benzamide], the IC50 stood at 50 nM.

As for `CNC(=O)c1ccc(CN(C2CC(C)(C)CCNC2=O)S(=O)(=O)c2ccc(Cl)cc2)cc1` (racemic) [Example 145, rac-4-{[(4-Chloro-benzenesulfonyl)-(5,5-dimethyl-2-oxo-azepan-3-yl)-amino]-methyl}-N-methyl-benzamide], the concentration for half-maximal inhibition (IC50) worked out at 10 nM.

For the compound `CC1(C)CCNC(=O)[C@H](N(Cc2ccc(-c3ccno3)cc2)S(=O)(=O)c2ccc(Cl)cc2)C1` [Example 191, 4-Chloro-N-((R)-5,5-dimethyl-2-oxo-azepan-3-yl)-N-(4-isoxazol-5-yl-benzyl)-benzenesulfonamide], the half-maximal inhibitory concentration (IC50) stood at 60 nM.

Consider `CC1(C)CCNC(=O)[C@H](N(Cc2ccc(CO)cc2F)S(=O)(=O)c2ccc(Cl)cc2)C1` [Example 193, 4-Chloro-N-((R)-5,5-dimethyl-2-oxo-azepan-3-yl)-N-(2-fluoro-4-hydroxymethyl-benzyl)-benzenesulfonamide], for which the 50% inhibitory concentration (IC50) was determined as 20 nM.

As for `CCOC(=O)CC(=O)Nc1ccc(CN(C2CCCCNC2=O)S(=O)(=O)c2ccc(Cl)cc2)cc1` (racemic) [Example 165, Rac-N-(4-{[(4-Chloro-benzenesulfonyl)-(2-oxo-azepan-3-yl)-amino]-methyl}-phenyl)-malonamic acid ethyl ester], the half-maximal inhibitory concentration (IC50) was found to be 270 nM.

In the case of `CC1(C)CCNC(=O)C(N(Cc2ccc(C(=O)NCCF)cc2)S(=O)(=O)c2ccc(Cl)cc2)C1` (racemic) [Example 140, rac-4-{[(4-Chloro-benzenesulfonyl)-(5,5-dimethyl-2-oxo-azepan-3-yl)-amino]-methyl}-N-(2-fluoro-ethyl)-benzamide], the half-maximal inhibitory concentration (IC50) came out at 20 nM.

With `CC1(C)CCNC(=O)C(N(Cc2ccc(C(=O)NCCO)cc2)S(=O)(=O)c2ccc(Cl)cc2)C1` (racemic) [Example 143, rac-4-{[(4-Chloro-benzenesulfonyl)-(5,5-dimethyl-2-oxo-azepan-3-yl)-amino]-methyl}-N-(2-hydroxy-ethyl)-benzamide], the 50% inhibitory concentration (IC50) stood at 40 nM.

For `CN(C)NC(=O)c1ccc(CN([C@@H]2CC(C)(C)CCNC2=O)S(=O)(=O)c2ccc(Cl)cc2)c(F)c1` [Example 189, 4-Chloro-N-[4-(N′,N′-dimethyl-hydrazinocarbonyl)-2-fluoro-benzyl]-N-((R)-5,5-dimethyl-2-oxo-azepan-3-yl)-benzenesulfonamide], the IC50 was 20 nM.

As to `O=C(NC1CC1)c1ccc(CN([C@@H]2CCCCNC2=O)S(=O)(=O)c2ccc(Br)cc2)cc1` [Example 107, N-Cyclopropyl-4-{[((R)-2-oxo-azepan-3-yl)-(4-bromo-benzenesulfonyl)-amino]-methyl}-benzamide], the IC50 is 290 nM.

For the compound `NC(=O)c1ccc(CN([C@@H]2CCCCNC2=O)S(=O)(=O)c2ccc(Cl)cc2)cc1` [Example 2, 4-{[(4-Chloro-benzenesulfonyl)-((R)-2-oxo-azepan-3-yl)-amino]-methyl}-benzamide], the half-maximal inhibitory concentration (IC50) amounted to 150 nM.

On to `CC1(C)CCNC(=O)[C@H](N(Cc2ccc(CCC(=O)O)cc2)S(=O)(=O)c2ccc(Cl)cc2)C1` [Example 187, 3-(4-{[(4-Chloro-benzenesulfonyl)-((R)-5,5-dimethyl-2-oxo-azepan-3-yl)-amino]-methyl}-phenyl)-propionic acid], for which the IC50 turned out to be 10 nM.

For `COc1ccc(CN([C@@H]2CC(C)(C)CCNC2=O)S(=O)(=O)c2ccc(Cl)cc2)c(F)c1` [Example 192, 4-Chloro-N-((R)-5,5-dimethyl-2-oxo-azepan-3-yl)-N-(2-fluoro-4-methoxy-benzyl)-benzenesulfonamide], the concentration for half-maximal inhibition (IC50) came out at 40 nM.

With `O=C1NCCCCC1N(Cc1ccc(C(F)F)cc1)S(=O)(=O)c1ccc(Cl)cc1` (racemic) [Example 172, Rac-4-Chloro-N-(4-difluoromethyl-benzyl)-N-(2-oxo-azepan-3-yl)-benzenesulfonamide], the IC50 came out at 230 nM.

`O=C(NC1CC1)c1ccc(CN(C2CC(C(F)(F)F)CCNC2=O)S(=O)(=O)c2ccc(Cl)cc2)cc1` (centres unmarked) [Example 115, 4-{[(4-Chloro-benzenesulfonyl)-(2-oxo-5-trifluoromethyl-azepan-3-yl)-amino]-methyl}-N-cyclopropyl-benzamide]: the IC50 was 30 nM.

Consider `O=C1NCCCC[C@H]1N(Cc1ccc(-c2ncn[nH]2)cc1F)S(=O)(=O)c1ccc(Cl)cc1` [Example 56, 4-Chloro-N-[2-fluoro-4-(2H-[1,2,4]triazol-3-yl)-benzyl]-N-((R)-2-oxo-azepan-3-yl)-benzenesulfonamide], for which the IC50 came out at 80 nM.

Consider `CC1(C)CCNC(=O)C(N(Cc2ccc(-c3nn[nH]n3)cc2)S(=O)(=O)c2ccc(Cl)cc2)C1` (racemic) [Example 150, rac-4-Chloro-N-(5,5-dimethyl-2-oxo-azepan-3-yl)-N-[4-(2H-tetrazol-5-yl)-benzyl]-benzenesulfonamide], for which the IC50 was 100 nM.

Consider `COC(=O)c1ccc(CN([C@@H]2CC(C)(C)CCNC2=O)S(=O)(=O)c2ccc(Cl)cc2)c(F)c1` [Example 185, 4-{[(4-Chloro-benzenesulfonyl)-((R)-5,5-dimethyl-2-oxo-azepan-3-yl)-amino]-methyl}-3-fluoro-benzoic acid methyl ester], for which the half-inhibitory concentration (IC50) was found to be 10 nM.

For the compound `CC1(C)CCNC(=O)C(N(Cc2ccc(C(N)=O)cc2)S(=O)(=O)c2ccc(Cl)cc2)C1` (racemic) [Example 146, rac-4-{[(4-Chloro-benzenesulfonyl)-(5,5-dimethyl-2-oxo-azepan-3-yl)-amino]-methyl}-benzamide], the IC50 was 20 nM.

In the case of `CC1(C)CCNC(=O)[C@H](N(Cc2ccc(C(=O)NC3CC3)cc2)S(=O)(=O)c2ccc(Cl)cc2)C1` [Example 183, 4-{[(4-Chloro-benzenesulfonyl)-((R)-5,5-dimethyl-2-oxo-azepan-3-yl)-amino]-methyl}-N-cyclopropyl-benzamide], the 50% inhibitory concentration (IC50) turned out to be 10 nM.

These data come from patent US7253158B2, “Sulfonamides” (Hoffmann-La Roche Inc., priority 2004, dated 2007).
